Tests used:
Experiment in all cases: Large panel kinase profiling
Format in all cases: biochemical
Conditions in all cases: 1 μM test article, 1 mM ATP
[1] = target: T1, ZAP70 (Homo sapiens, UniProt P43403)
T1 construct: AssayQuant Technologies, Inc. (contract laboratory that ran the panel)
T1 sequence (P43403 1-619): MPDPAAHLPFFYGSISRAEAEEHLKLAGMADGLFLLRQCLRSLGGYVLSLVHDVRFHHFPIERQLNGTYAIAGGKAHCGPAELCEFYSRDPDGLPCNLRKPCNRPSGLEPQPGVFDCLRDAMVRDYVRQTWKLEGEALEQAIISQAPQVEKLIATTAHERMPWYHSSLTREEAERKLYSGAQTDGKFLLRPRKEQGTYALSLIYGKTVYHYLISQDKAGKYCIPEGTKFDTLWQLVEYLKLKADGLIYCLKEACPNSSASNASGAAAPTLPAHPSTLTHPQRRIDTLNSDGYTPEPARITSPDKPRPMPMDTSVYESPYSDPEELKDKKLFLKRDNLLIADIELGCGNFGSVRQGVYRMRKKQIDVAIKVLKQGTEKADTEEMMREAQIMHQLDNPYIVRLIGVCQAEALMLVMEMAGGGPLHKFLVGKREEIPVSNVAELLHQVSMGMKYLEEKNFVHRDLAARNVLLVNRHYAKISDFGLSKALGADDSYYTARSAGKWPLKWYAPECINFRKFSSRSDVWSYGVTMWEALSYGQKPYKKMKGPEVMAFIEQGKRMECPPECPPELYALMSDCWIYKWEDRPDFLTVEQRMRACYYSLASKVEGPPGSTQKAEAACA
In short: (§1)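 CSox-Sensor fluorescence readout; test article 1 μM, ATP 1 mM, 30° C.; kinetic reads at 1-min intervals, Ex 360/Em 485 nm.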

[2] = target: T2, GAK (Homo sapiens, UniProt O14976)
T2 construct: AssayQuant Technologies, Inc. (service provider)
T2 sequence (O14976 1-1311): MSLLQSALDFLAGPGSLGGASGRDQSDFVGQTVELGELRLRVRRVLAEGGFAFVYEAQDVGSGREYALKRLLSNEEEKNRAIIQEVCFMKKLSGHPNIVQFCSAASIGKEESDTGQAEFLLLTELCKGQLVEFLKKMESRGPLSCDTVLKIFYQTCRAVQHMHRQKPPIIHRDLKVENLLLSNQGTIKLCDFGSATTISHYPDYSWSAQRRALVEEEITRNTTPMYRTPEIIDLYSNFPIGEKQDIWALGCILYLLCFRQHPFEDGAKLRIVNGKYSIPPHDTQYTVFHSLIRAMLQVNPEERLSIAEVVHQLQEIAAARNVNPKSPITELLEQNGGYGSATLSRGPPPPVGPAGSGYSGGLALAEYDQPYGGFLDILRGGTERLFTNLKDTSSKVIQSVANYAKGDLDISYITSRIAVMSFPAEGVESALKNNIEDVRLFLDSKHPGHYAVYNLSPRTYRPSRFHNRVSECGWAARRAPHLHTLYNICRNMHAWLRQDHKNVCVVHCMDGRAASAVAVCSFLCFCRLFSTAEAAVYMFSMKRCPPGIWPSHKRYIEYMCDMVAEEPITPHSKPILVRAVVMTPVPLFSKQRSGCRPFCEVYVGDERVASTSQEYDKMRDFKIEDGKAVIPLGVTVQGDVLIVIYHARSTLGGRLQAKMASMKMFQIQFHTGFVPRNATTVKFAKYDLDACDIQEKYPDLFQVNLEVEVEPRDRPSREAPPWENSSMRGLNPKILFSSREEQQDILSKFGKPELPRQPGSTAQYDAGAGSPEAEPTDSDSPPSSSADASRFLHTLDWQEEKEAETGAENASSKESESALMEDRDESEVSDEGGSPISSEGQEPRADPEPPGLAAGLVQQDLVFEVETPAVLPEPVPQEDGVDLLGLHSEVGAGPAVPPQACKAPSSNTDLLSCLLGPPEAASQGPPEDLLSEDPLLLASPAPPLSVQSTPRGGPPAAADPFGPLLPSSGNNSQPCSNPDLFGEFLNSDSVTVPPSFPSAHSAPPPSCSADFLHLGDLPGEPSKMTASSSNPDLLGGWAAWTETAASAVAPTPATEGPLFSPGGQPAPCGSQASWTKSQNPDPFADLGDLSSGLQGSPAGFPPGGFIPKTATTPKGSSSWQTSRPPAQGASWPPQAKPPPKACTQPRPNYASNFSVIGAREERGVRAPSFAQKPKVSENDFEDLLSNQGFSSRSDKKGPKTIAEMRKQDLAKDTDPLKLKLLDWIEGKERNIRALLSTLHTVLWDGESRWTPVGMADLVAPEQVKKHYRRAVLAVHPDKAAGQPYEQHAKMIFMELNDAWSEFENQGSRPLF
In short: as §1

[3] = target: CAMK1D (Homo sapiens, UniProt Q8IU85)
In short: as §1

Chain of CAMK1D (Q8IU85 whole entry): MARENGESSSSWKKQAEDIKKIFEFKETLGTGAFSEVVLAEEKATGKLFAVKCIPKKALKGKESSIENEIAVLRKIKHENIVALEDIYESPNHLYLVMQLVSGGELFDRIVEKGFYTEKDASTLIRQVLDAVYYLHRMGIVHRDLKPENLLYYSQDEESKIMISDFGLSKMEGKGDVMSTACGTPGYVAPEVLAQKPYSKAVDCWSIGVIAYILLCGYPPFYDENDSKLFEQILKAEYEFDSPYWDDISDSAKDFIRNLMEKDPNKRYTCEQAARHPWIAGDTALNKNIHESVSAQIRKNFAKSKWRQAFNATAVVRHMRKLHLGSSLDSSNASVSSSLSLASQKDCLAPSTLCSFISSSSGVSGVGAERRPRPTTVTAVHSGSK

SMILES | inhibition at 1 µM [1] [%] | inhibition at 1 µM [2] [%] | inhibition at 1 µM [3] [%]
C=CC(=O)N1CCCC(c2c(F)cc(C(N)=O)c3[nH]c4c(c23)CCCCC4)C1 (single isomer, unassigned) [Compound 5-6] | -22.5 | 17.9 | 19.6
C=CC(=O)N1CCC[C@@H](c2c(F)cc(C(N)=O)c3[nH]c4c(c23)CC2(CC4)CC2)C1 [Compound 6-2, (S)-5-(1-acryloylpiperidin-3-yl)-6-fluoro-1,2,4,9-tetrahydrospiro[carbazole-3,1′-cyclopropane]-8-carboxamide] | 1.7 | -3.7 | 26.1
C=CC(=O)N1CCC[C@@H](c2c(F)cc(C(N)=O)c3[nH]c4c(c23)CCC4)C1 [Compound 10-2, (S)-8-(1-acryloylpiperidin-3-yl)-7-fluoro-1,2,3,4-tetrahydrocyclo-penta[b]indole-5-carboxamide] | -9.5 | -28.4 | 10.5
